Tested on: hepatic stellate cells (HSC)
Experiment: Gene expression in hepatic stellate cells after treatment with recombinant C3a
Assay type: cell-based
Conditions: recombinant C3a vs control (vehicle alone), FIG. 3B
Method: FIG. 3. Adipsin/C3a effects on liver fibrosis. A. Complement C3 cleavage products as assessed by Western blot in conditioned medium from hepatocytes with or without Adipsin expression. B. Gene expression in hepatic stellate cells (HSC) after treatment with vehicle or recombinant C3a.
The effects of Adipsin/C3a on liver fibrosis was analyzed.

recombinant C3a: recombinant complement C3 cleavage product C3a, used to treat hepatic stellate cells
Acta2 gene expression in hepatic stellate cells: dose dependent increase
Collal gene expression in hepatic stellate cells: dose dependent increase

Source: patent publication US20230241093A1, “TARGETING ADISPSIN FOR NONALCOHOLIC STEATOHEPATITIS (NASH)- INDUCED LIVER FIBROSIS” (The Trustees of Columbia University in the City of New York, priority 2020, published 2023)
